Patent US11447502B2, “Antibacterial agents: dual-targeted RNA polymerase inhibitors” (priority 2018, dated 2022)
≈ marks a conversion by molar mass, not a printed value.

Tests used:
Test in all cases: microbe, parasite or virus in culture
Type in all cases: cell-based
[1] = system: rifampin-resistant M. tuberculosis 4457 (rpoB-H′526′Y); settings: Mycobacterium tuberculosis; read-out: antibacterial activity rifampin-resistant M. tuberculosis 4457 (rpoB-H′526′Y) MIC
[2] = system: rifampin-resistant M. tuberculosis 10545 (rpoB-S′531′L); settings: Mycobacterium tuberculosis; read-out: antibacterial activity rifampin-resistant M. tuberculosis 10545 (rpoB-S′531′L) MIC
[3] = system: rifampin-resistant M. tuberculosis 20626 (rpoB-H′526′D); settings: Mycobacterium tuberculosis; read-out: antibacterial activity rifampin-resistant M. tuberculosis 20626 (rpoB-H′526′D) MIC

| SMILES | MIC [1] [µg/mL] | MIC [2] [µg/mL] | MIC [3] [µg/mL] |
| --- | --- | --- | --- |
| CO[C@H]1/C=C/O[C@@]2(C)Oc3c(C)c(O)c4c(O)c(c(/C=N/N5CCN(CCN6CCN(c7ccc(F)cc7NC(=O)C(Cc7ccccc7)NC(=O)c7ccccc7F)CC6)CC5)c(O)c4c3C2=O)NC(=O)/C(C)=C\C=C\[C@H](C)[C@H](O)[C@@H](C)[C@@H](O)[C@@H](C)[C@H](OC(C)=O)[C@@H]1C (some centres unmarked) [IX-403, Rifamycin SV—(CHN)—IX-402 Conjugate] | 12.5 (≈ 9.62 µM) | 12.5 (≈ 9.62 µM) | 25 (≈ 19.2 µM) |
| [2H]C([2H])(c1ccccc1)C(NC(=O)c1ccccc1F)C(=O)Nc1cc(F)ccc1N1CCN(/N=C/C2=C3NC(=O)/C(C)=C\C=C\[C@H](C)[C@H](O)[C@@H](C)[C@@H](O)[C@@H](C)[C@H](OC(C)=O)[C@H](C)[C@@H](OC)/C=C/O[C@@]4(C)Oc5c(C)c(O)c(c(c5C4=O)C2=O)C3=O)CC1 (some centres unmarked) [IX-476a, Rifamycin S—(CHN)—IX-370a Conjugate] | 3.13 (≈ 2.64 µM) | 6.25 (≈ 5.26 µM) | – |
